Source: ChEMBL document CHEMBL4130591, “2-Arylidene Hydrazinecarbodithioates as Potent, Selective Inhibitors of Cystathionine γ-Lyase (CSE)” (ACS Med Chem Lett, 2017)
Activity calls are given as the source filed them. The rule behind the calls is not given here.

What was measured:
[1] = target: T1, Cystathionine gamma-lyase (Homo sapiens, UniProt P32929); experiment: Inhibition of cystathionine gamma-lyase (unknown origin)
[2] = target: T1, Cystathionine gamma-lyase; experiment: Inhibition of cystathionine gamma-lyase (unknown origin) assessed as reduction in cysteine formation from CPM using L-cystathionine pre-incubated for 15 min followed by L-cystathionine and CPM addition and measured after 7 mins by fluorescence-based primary assay
[3] = organism: Homo sapiens; experiment: Selectivity for cystathionine gamma-lyase (unknown origin) over human recombinant CBS
[4] = target: T1, Cystathionine gamma-lyase; experiment: Inhibition of cystathionine gamma-lyase (unknown origin) assessed as reduction in cysteine formation from CPM at 40 uM using L-cystathionine incubated for 7 mins by fluorescence-based primary assay
[5] = target: T1, Cystathionine gamma-lyase; experiment: Reversible inhibition of cystathionine gamma-lyase (unknown origin) assessed as reduction in cysteine formation from CPM using L-cystathionine at 50 uM incubated for 2 hrs followed by dialysis for 18 to 48 hrs by fluorescence-based primary assay
[6] = target: T1, Cystathionine gamma-lyase; experiment: Inhibition of cystathionine gamma-lyase (unknown origin) assessed as reduction in H2S production at 40 uM using AzMC probe by fluorescence based assay
[7] = target: T2, Cystathionine beta-synthase (Homo sapiens) (UniProt P35520); experiment: Inhibition of human recombinant CBS assessed as reduction in H2S production at 40 uM using AzMC probe by fluorescence based assay
T2 sequence (whole entry): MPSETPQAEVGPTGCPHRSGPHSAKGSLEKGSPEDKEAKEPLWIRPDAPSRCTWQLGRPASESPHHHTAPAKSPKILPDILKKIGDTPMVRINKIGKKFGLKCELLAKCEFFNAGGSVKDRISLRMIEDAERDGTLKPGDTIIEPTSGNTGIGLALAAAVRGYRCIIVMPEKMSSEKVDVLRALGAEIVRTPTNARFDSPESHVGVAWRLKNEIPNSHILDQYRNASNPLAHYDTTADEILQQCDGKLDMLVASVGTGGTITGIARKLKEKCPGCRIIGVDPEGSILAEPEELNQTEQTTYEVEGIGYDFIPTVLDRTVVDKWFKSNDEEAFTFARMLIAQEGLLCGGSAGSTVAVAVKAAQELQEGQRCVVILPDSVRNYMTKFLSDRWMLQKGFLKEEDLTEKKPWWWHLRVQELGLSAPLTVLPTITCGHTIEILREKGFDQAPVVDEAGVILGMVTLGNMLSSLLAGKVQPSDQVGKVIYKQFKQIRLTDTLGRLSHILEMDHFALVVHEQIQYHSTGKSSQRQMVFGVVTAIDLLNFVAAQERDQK

T1 sequence (P32929 whole entry): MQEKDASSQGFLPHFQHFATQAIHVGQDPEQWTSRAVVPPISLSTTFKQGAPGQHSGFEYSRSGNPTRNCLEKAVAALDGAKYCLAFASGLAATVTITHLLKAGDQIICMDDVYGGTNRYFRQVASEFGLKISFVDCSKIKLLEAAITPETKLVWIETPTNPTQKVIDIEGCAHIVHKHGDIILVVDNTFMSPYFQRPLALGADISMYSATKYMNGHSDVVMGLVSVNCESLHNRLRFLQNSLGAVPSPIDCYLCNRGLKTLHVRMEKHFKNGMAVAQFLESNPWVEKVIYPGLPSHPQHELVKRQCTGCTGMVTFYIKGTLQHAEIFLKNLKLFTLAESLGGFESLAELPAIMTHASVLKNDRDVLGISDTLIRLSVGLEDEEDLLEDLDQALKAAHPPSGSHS

Row | IC50 [2] | Structure (SMILES) | other results
1 |  | CC(C)(S)[C@@H](N)C(=O)O [PENICILLAMINE] | IC50 [1]: 270 µM
2 | > 100 µM | CSC(=S)N/N=C/c1cc2ccccc2n1C | 
3 |  | N=C1C=C(N)C(=O)c2[nH]c(=O)ccc21 | IC50 [1]: 6.3 µM
4 | 6 µM | Cc1cccc(/C=N/NC(=S)SCC(=O)Nc2ccc(C(C)(C)C)cc2)n1 | 
5 | 3 µM | Cc1ccc(NC(=O)CSC(=S)N/N=C/c2nn(C)cc2Cl)cc1 | 
6 | 2.1 µM | COc1ccc(NC(=O)CSC(=S)N/N=C/c2cscn2)cc1 | 
7 | > 100 µM | CS/C(S)=N/N=C(\C)c1ccccn1 | 
8 | 3.5 µM | Cc1ccc(NC(=O)CSC(=S)N/N=C/c2cccc(C)n2)cc1 | 
9 | 10 µM | Cc1ccc(NC(=O)CSC(=S)N/N=C/c2cccc(Br)n2)cc1 | 
10 | 2 µM | CC(C)(C)c1ccc(NC(=O)CSC(=S)N/N=C/c2ncccc2F)cc1 | 
11 | 10 µM | CSC(=S)N/N=C/c1ccc(Br)cn1 | 
12 | 6 µM | O=C(CSC(=S)N/N=C/c1ccccn1)Nc1ccccc1 | 
13 | 3 µM | CC(C)(C)c1ccc(NC(=O)CSC(=S)N/N=C/c2ccccn2)cc1 | 
14 | > 100 µM | O=C(CSC(=S)N/N=C/c1ccccn1)Nc1cccc(Br)c1 | 
15 | 15 µM | CSC(=S)N/N=C/c1cnccn1 | 
16 | 2.7 µM | COc1ccc(NC(=O)CSC(=S)N/N=C/c2nn(C)cc2Cl)cc1 | 
17 | 6 µM | O=C(CSC(=S)N/N=C/c1ncccc1F)Nc1ccc(C(F)(F)F)cc1 | 
18 | 6 µM | Cn1cc(Cl)c(/C=N/NC(=S)SCC(=O)Nc2ccc(C(C)(C)C)cc2)n1 | 
19 |  | NCCO/C=C/[C@H](N)C(=O)O | IC50 [1]: 1.1 µM
20 | 1.9 µM | COc1ccc(NC(=O)CSC(=S)N/N=C/c2cccc(C)n2)cc1 | 
21 | 15 µM | CC(C)(C)c1ccc(NC(=O)CSC(=S)N/N=C/c2cccc(Br)n2)cc1 | 
22 | > 100 µM | CSC(=S)N/N=C/c1c[nH]c2ccccc12 | 
23 | 7 µM | CSC(=S)N/N=C/c1cscn1 | 

Row | IC50 [2] | Structure (SMILES) | other results
24 | > 100 µM | CC(C)(C)c1ccc(NC(=O)CSC(=S)N/N=C/c2cnccn2)cc1 | 
25 | 2 µM | COc1ccc(NC(=O)CSC(=S)N/N=C/c2ccccn2)cc1 | 
26 | > 100 µM | O=C(CSC(=S)N/N=C/c1ccccn1)Nc1ccc(F)cc1 | 
27 | 6 µM | CSC(=S)N/N=C/c1nn(C)cc1Cl | 
28 | 15 µM | CSC(=S)N/N=C/c1cc[nH]n1 | 
29 | 1.2 µM | COc1ccc(NC(=O)CSC(=S)N/N=C/c2ncccc2F)cc1 | Selectivity ratio [3]: 400
30 |  | C#CCNC(=O)[C@H]1CSC(=O)N1 | IC50 [1]: 30 µM
31 | 12 µM | CSC(=S)N/N=C/c1cccc(Br)n1 | 
32 | > 100 µM | COc1ccc(NC(=O)CSC(=S)N/N=C/c2ccc(Br)cn2)cc1 | 
33 | 50 µM | CSC(=S)N/N=C/c1cccnc1 | 
34 | 5 µM | CSC(=S)N/N=C/c1ncccc1F | 
35 | 5 µM | CSC(=S)N/N=C/c1cccc(C)n1 | 
36 | 6 µM | CSC1=NNC(c2ccccn2)S1 (stereo not given) | inhibition [4]: > 30%; inhibition [5]: Active; inhibition [6]: Active; inhibition [7]: inactive
37 | 25 µM | Cc1ccc(NC(=O)CSC(=S)N/N=C/c2cccnc2)cc1 | 
38 | 2 µM | Cc1ccc(NC(=O)CSC(=S)N/N=C/c2ccccn2)cc1 | 
39 | 40 µM | CSC(=S)N/N=C/c1ccncc1 | 
40 | 6 µM | CSC(=S)N/N=C/c1ncccc1C | 
41 | 40 µM | CC(C)(C)c1ccc(NC(=O)CSC(=S)N/N=C/c2ccncc2)cc1 | 
42 | 2.5 µM | Cc1ccc(NC(=O)CSC(=S)N/N=C/c2ncccc2C)cc1 | 
43 | 2 µM | Cc1ccc(NC(=O)CSC(=S)N/N=C/c2ncccc2F)cc1 | 
44 | 6 µM | CSC(=S)N/N=C/c1ccccn1 | 
45 | 12 µM | CC(C)(C)c1ccc(NC(=O)CSC(=S)N/N=C/c2cccnc2)cc1 | 
